# Data taken from PubChem BioAssay (NCI).
#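 Protocol summary: plate cells (96-well), add compound at 5 concentrations, incubate 48 h, interpolate endpoints linearly. Abbreviation: GI50, concentration required for 50% inhibition of growth. TGI: concentration producing complete growth inhibition.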
# Assays:
# Test in all cases: NCI tumour cell line growth inhibition, 48 h
# HT29 colon = system: HT29 colon
# SW-620 colon = system: SW-620 colon
# U251 CNS = system: U251 CNS
# COLO 205 colon = system: COLO 205 colon
# NCI-H23 lung = system: NCI-H23 lung
# HCC-2998 colon = system: HCC-2998 colon
# A498 renal = system: A498 renal
# MCF7 breast = system: MCF7 breast
# NCI-H460 lung = system: NCI-H460 lung
# HOP-62 NSCLC = system: HOP-62 NSCLC
# UACC-257 melanoma = system: UACC-257 melanoma
# EKVX NSCLC = system: EKVX NSCLC
# MDA-MB-435 = system: MDA-MB-435
# SK-OV-3 ovarian = system: SK-OV-3 ovarian
# SN12C renal = system: SN12C renal
# NCI/ADR-RES ovarian = system: NCI/ADR-RES ovarian
# DU-145 prostate = system: DU-145 prostate
# A549 NSCLC = system: A549 NSCLC
# K-562 leukemia = system: K-562 leukemia
# NCI-H522 lung = system: NCI-H522 lung
# RPMI-8226 leukemia = system: RPMI-8226 leukemia
# MDA-MB-231 breast = system: MDA-MB-231 breast
# HOP-92 NSCLC = system: HOP-92 NSCLC
# HS 578T breast = system: HS 578T breast
# KM12 colon = system: KM12 colon
# IGROV1 ovarian = system: IGROV1 ovarian
# NCI-H226 lung = system: NCI-H226 lung
# OVCAR-4 ovarian = system: OVCAR-4 ovarian
# CAKI-1 renal = system: CAKI-1 renal
# UO-31 renal = system: UO-31 renal
# SF-539 CNS = system: SF-539 CNS
# SK-MEL-28 melanoma = system: SK-MEL-28 melanoma
# HL-60(TB) leukemia = system: HL-60(TB) leukemia
# SK-MEL-2 melanoma = system: SK-MEL-2 melanoma
# RXF 393 renal = system: RXF 393 renal
# SNB-19 CNS = system: SNB-19 CNS
# M14 melanoma = system: M14 melanoma
# MALME-3M melanoma = system: MALME-3M melanoma
# BT-549 breast = system: BT-549 breast
# HCT-116 colon = system: HCT-116 colon
# LOX IMVI melanoma = system: LOX IMVI melanoma
# HCT-15 colon = system: HCT-15 colon
# OVCAR-3 ovarian = system: OVCAR-3 ovarian
# MOLT-4 leukemia = system: MOLT-4 leukemia
# T-47D breast = system: T-47D breast
# CCRF-CEM leukemia = system: CCRF-CEM leukemia
# SNB-75 CNS = system: SNB-75 CNS
# UACC-62 melanoma = system: UACC-62 melanoma
# OVCAR-5 ovarian = system: OVCAR-5 ovarian
# SR leukemia = system: SR leukemia
# TK-10 renal = system: TK-10 renal
# OVCAR-8 ovarian = system: OVCAR-8 ovarian
# PC-3 prostate = system: PC-3 prostate
# 786-0 renal = system: 786-0 renal
# SF-295 CNS = system: SF-295 CNS
# SK-MEL-5 melanoma = system: SK-MEL-5 melanoma
# ACHN renal = system: ACHN renal
# SF-268 CNS = system: SF-268 CNS
smiles,measurement,setting,value
CC(=O)N1N=C2/C(=C/c3ccc(Cl)cc3)CC(C)CC2C1c1ccc(Cl)cc1 (stereo unspecified),GI50,HT29 colon,21.7 µM
same,TGI,HT29 colon,91.5 µM
same,GI50,SW-620 colon,19.3 µM
same,TGI,SW-620 colon,57.7 µM
same,GI50,U251 CNS,25.1 µM
same,TGI,U251 CNS,86.8 µM
same,GI50,COLO 205 colon,11.8 µM
same,TGI,COLO 205 colon,24.5 µM
same,GI50,NCI-H23 lung,25.2 µM
same,TGI,NCI-H23 lung,> 100 µM
same,GI50,HCC-2998 colon,19.1 µM
same,TGI,HCC-2998 colon,38.1 µM
same,GI50,A498 renal,13 µM
same,TGI,A498 renal,28.7 µM
same,GI50,MCF7 breast,19.2 µM
same,TGI,MCF7 breast,54.2 µM
same,GI50,NCI-H460 lung,18.5 µM
same,TGI,NCI-H460 lung,41.8 µM
same,GI50,HOP-62 NSCLC,22.1 µM
same,TGI,HOP-62 NSCLC,54.6 µM
same,GI50,UACC-257 melanoma,19.9 µM
same,TGI,UACC-257 melanoma,56.1 µM
same,GI50,EKVX NSCLC,21.5 µM
same,TGI,EKVX NSCLC,92.7 µM
same,GI50,MDA-MB-435,30.9 µM
same,TGI,MDA-MB-435,> 100 µM
same,GI50,SK-OV-3 ovarian,20.4 µM
same,TGI,SK-OV-3 ovarian,59.6 µM
same,GI50,SN12C renal,19.9 µM
same,TGI,SN12C renal,40.4 µM
same,GI50,NCI/ADR-RES ovarian,21.7 µM
same,TGI,NCI/ADR-RES ovarian,> 100 µM
same,GI50,DU-145 prostate,30.5 µM
same,TGI,DU-145 prostate,> 100 µM
same,GI50,A549 NSCLC,20.6 µM
same,TGI,A549 NSCLC,> 100 µM
same,GI50,K-562 leukemia,13.8 µM
same,TGI,K-562 leukemia,65.8 µM
same,GI50,NCI-H522 lung,17.1 µM
same,TGI,NCI-H522 lung,56.8 µM
same,GI50,RPMI-8226 leukemia,9.14 µM
same,TGI,RPMI-8226 leukemia,32.6 µM
same,GI50,MDA-MB-231 breast,18.1 µM
same,TGI,MDA-MB-231 breast,52.6 µM
same,GI50,HOP-92 NSCLC,19.5 µM
same,TGI,HOP-92 NSCLC,54 µM
same,GI50,HS 578T breast,20.6 µM
same,TGI,HS 578T breast,72.1 µM
same,GI50,KM12 colon,21.4 µM
same,TGI,KM12 colon,67.1 µM
same,GI50,IGROV1 ovarian,22.5 µM
same,TGI,IGROV1 ovarian,67.2 µM
same,GI50,NCI-H226 lung,22 µM
same,TGI,NCI-H226 lung,70.2 µM
same,GI50,OVCAR-4 ovarian,27.9 µM
same,TGI,OVCAR-4 ovarian,> 100 µM
same,GI50,CAKI-1 renal,44.3 µM
same,TGI,CAKI-1 renal,> 100 µM
same,GI50,UO-31 renal,15.1 µM
same,TGI,UO-31 renal,30.5 µM
same,GI50,SF-539 CNS,19.1 µM
same,TGI,SF-539 CNS,38 µM
same,GI50,SK-MEL-28 melanoma,23.7 µM
same,TGI,SK-MEL-28 melanoma,53.8 µM
same,GI50,HL-60(TB) leukemia,13.5 µM
same,TGI,HL-60(TB) leukemia,59.5 µM
same,GI50,SK-MEL-2 melanoma,17.4 µM
same,TGI,SK-MEL-2 melanoma,36.7 µM
same,GI50,RXF 393 renal,15.3 µM
same,TGI,RXF 393 renal,33.9 µM
same,GI50,SNB-19 CNS,23.7 µM
same,TGI,SNB-19 CNS,> 100 µM
same,GI50,M14 melanoma,17.7 µM
same,TGI,M14 melanoma,35.3 µM
same,GI50,MALME-3M melanoma,23.6 µM
same,TGI,MALME-3M melanoma,76.2 µM
same,GI50,BT-549 breast,17 µM
same,TGI,BT-549 breast,34.2 µM
same,GI50,HCT-116 colon,12.6 µM
same,TGI,HCT-116 colon,25.2 µM
same,GI50,LOX IMVI melanoma,18.1 µM
same,TGI,LOX IMVI melanoma,34.6 µM
same,GI50,HCT-15 colon,31.9 µM
same,TGI,HCT-15 colon,> 100 µM
same,GI50,OVCAR-3 ovarian,20 µM
same,TGI,OVCAR-3 ovarian,53.9 µM
same,GI50,MOLT-4 leukemia,11.6 µM
same,TGI,MOLT-4 leukemia,39.3 µM
same,GI50,T-47D breast,12.4 µM
same,TGI,T-47D breast,61.8 µM
same,GI50,CCRF-CEM leukemia,19.7 µM
same,TGI,CCRF-CEM leukemia,62.6 µM
same,GI50,SNB-75 CNS,18.4 µM
same,TGI,SNB-75 CNS,65.3 µM
same,GI50,UACC-62 melanoma,21.1 µM
same,TGI,UACC-62 melanoma,52.2 µM
same,GI50,OVCAR-5 ovarian,43.4 µM
same,TGI,OVCAR-5 ovarian,> 100 µM
same,GI50,SR leukemia,14.6 µM
same,TGI,SR leukemia,53.8 µM
same,GI50,TK-10 renal,37.2 µM
same,TGI,TK-10 renal,> 100 µM
same,GI50,OVCAR-8 ovarian,24.9 µM
same,TGI,OVCAR-8 ovarian,> 100 µM
same,GI50,PC-3 prostate,12.8 µM
same,TGI,PC-3 prostate,> 100 µM
same,GI50,786-0 renal,18.2 µM
same,TGI,786-0 renal,39.1 µM
same,GI50,SF-295 CNS,28.8 µM
same,TGI,SF-295 CNS,> 100 µM
same,GI50,SK-MEL-5 melanoma,12.2 µM
same,TGI,SK-MEL-5 melanoma,25 µM
same,GI50,ACHN renal,33.2 µM
same,TGI,ACHN renal,> 100 µM
same,GI50,SF-268 CNS,21.5 µM
same,TGI,SF-268 CNS,73.4 µM
